According to patent US7579365B2 (ZIOPHRAM Oncology, Inc., priority 1998, dated 2009):
In brackets after ≈: the same amount, converted by molar mass. Read-outs that look alike come from different tables or passages of the source.

What was measured:
L1210 = L1210 leukemia model in vivo (% ILS, survival time); set-up: species or system mouse; details: for ILS at 46.4 mg/kg: read-out: % ILS L1210
Text: In the hollow fiber assay, both compounds were almost equally strongly active, while on L 1210 D-24851 was markedly more strongly active after oral and intraperitoneal administration than D-24241.

L1210 cell line = test: XTT proliferation test/cytotoxicity test, L1210 cell line; type: cell-based, mouse; details: for EC50: Mus musculus; for XTT EC50 L1210: L1210 tumor cells
Description: (§1) In this test system, the effect of substances on the proliferation behavior of tumor cell lines is investigated. In the course of this, the cytotoxic potential of these substances is determined. The test method is described in Scudiero et al. 1988, Cancer Res. 48, 4827.
(§2) The following tumor cell lines were employed in the investigations:
(§3) The KB cell line an epidermal carcinoma of the oral cavity,
(§4) the L1210 cell line a lymphatic leukemia of the mouse, the LNCAP cell line a prostate carcinoma and the SK-OV-3 cell line an ovarian carcinoma.

[1] = for Tox. p.o.: p.o. (Table 5)
LNCAP cell line = test: XTT proliferation test/cytotoxicity test, LNCAP cell line; type: cell-based; details: for EC50: Homo sapiens, read-out: XTT EC50 LNCaP
Description: as §1, §2, §3, §4

KB cell line = test: XTT proliferation test/cytotoxicity test, KB cell line; type: cell-based; details: for EC50: Homo sapiens, KB, read-out: XTT EC50 KB
Description: as §1, §2, §3, §4

SK-OV-3 cell line = test: XTT proliferation test/cytotoxicity test, SK-OV-3 cell line; type: cell-based; details: for EC50: Homo sapiens; for XTT EC50 SK-OV-3: SK-OV-3 tumor cells
Description: as §1, §2, §3, §4

[2] = L1210, L1210 tumor cells, read-out: XTT EC50 L1210
[3] = SK-OV-3, SK-OV-3 tumor cells, read-out: XTT EC50 SK-OV-3
[4] = L1210, read-out: XTT EC50 L1210
[5] = SK-OV-3, read-out: XTT EC50 SK-OV-3

## O=c1[nH]cc(F)c(=O)[nH]1 [5-Fluorouracil, reference compound]
L1210; Mus musculus, L1210, ip, 1 × 147 mg/kg i.p.
  ILS at 147 mg/kg: 72%
L1210; Mus musculus, L1210, ip, 4 × 68.1 mg/kg i.p.
  ILS at 68.1 mg/kg: 83%

## COc1cccc2c1C(=O)c1c(O)c3c(c(O)c1C2=O)C[C@@](O)(C(=O)CO)C[C@@H]3O[C@H]1C[C@H](N)[C@H](O)[C@H](C)O1 [Adriamycin, reference compound]
L1210 cell line; [2]
  EC50: 0.174 µg/mL (≈ 0.32 µM)
[1]; i.v. (Table 5)
  Tox. i.v.: ≈27.0 i.v. mg/kg
LNCAP cell line; LNCaP tumor cells
  EC50: 0.17 µg/mL (≈ 0.313 µM)
L1210; Mus musculus, L1210, iv, 1 × 14.7 mg/kg i.v.
  ILS at 14.7 mg/kg: 111%
KB cell line; KB tumor cells
  EC50: 0.15 µg/mL (≈ 0.276 µM)
SK-OV-3 cell line; [3]
  EC50: 0.089 µg/mL (≈ 0.164 µM)

## N.N.O=C([O-])C1(C(=O)[O-])CCC1.[Pt+2] [Carboplatin]
[1]; i.p. (Table 5)
  Tox. i.p.: ≈158.0 mg/kg
[1]
  Tox. p.o.: ≈841.0 p.o mg/kg
L1210; 1 × 100 mg/kg i.p.
  % ILS L1210: 41% ILS

## N.N.[Cl][Pt][Cl] [Cisplatin, reference compound]
L1210 cell line
  XTT EC50 L1210: L1210 0.30 μg/ml
L1210; 1 × 3.16 mg/kg i.p.
  % ILS L1210: 38.9% ILS

## O=P1(N(CCCl)CCCl)NCCCO1 (stereo not drawn) [Cyclophosphamide, reference compound]
[1]; i.v. (Table 5)
  Tox. i.v.: ≈340.7 i.v. mg/kg
L1210; Mus musculus, L1210, iv
  ILS at 46.4 mg/kg: 40%

## C/C(=C\c1csc(C)n1)[C@@H]1C[C@@H]2O[C@]2(C)CCC[C@H](C)[C@H](O)[C@@H](C)C(=O)C(C)(C)[C@@H](O)CC(=O)O1 [Epothilone B, reference compound]
L1210 cell line
  XTT EC50 L1210: L1210 ~ 0.0017 μg/ml
[1]; i.p. (Table 5)
  Tox. i.p.: ≈100.0 i.p. mg/kg
LNCAP cell line; LNCaP tumor cells
  XTT EC50 LNCaP: LNCAR ~ 0.014 μg/ml
L1210; 1 × 10 mg/kg i.p.
  % ILS L1210: 44% ILS
KB cell line; KB tumor cells
  XTT EC50 KB: KB ~ 0.0002 μg/ml
SK-OV-3 cell line
  XTT EC50 SK-OV-3: SKOV3 ~ 0.0031 μg/ml

## COc1cc([C@@H]2c3cc4c(cc3[C@@H](O[C@@H]3O[C@@H]5CO[C@@H](C)O[C@H]5[C@H](O)[C@H]3O)[C@H]3COC(=O)[C@H]23)OCO4)cc(OC)c1O [Etoposide]
[1]; in vivo, ip
  Tox. i.p.: ≈158.0 i.p. mg/kg
[1]; in vivo, iv
  Tox. i.v.: >68.1 i.v. mg/kg
L1210; Mus musculus, L1210, ip, 1 × 46.4 mg/kg i.p.
  ILS at 46.4 mg/kg: 56%

## O=C(Nc1cccnc1)C(=O)c1cn(Cc2ccc(F)cc2)c2ccccc12 [Example 3, N-(Pyridin-3-yl)-[1-(4-fluorobenzyl)indol-3-yl]glyoxylamide]
L1210 cell line; [2]
  EC50: 1.75 µg/mL (≈ 4.69 µM)
LNCAP cell line; LNCaP tumor cells
  EC50: 9.25 µg/mL (≈ 24.8 µM)
KB cell line; KB tumor cells
  EC50: 1.75 µg/mL (≈ 4.69 µM)
SK-OV-3 cell line; [3]
  EC50: 1.75 µg/mL (≈ 4.69 µM)

## O=C(Nc1cccnc1)C(=O)c1cn(Cc2ccccc2)c2ccccc12 [Example 4, N-(Pyridin-3-yl)-(1-benzylindol-3-yl)glyoxylamide]
L1210 cell line; [4]
  EC50: 1.75 µg/mL (≈ 4.92 µM)
LNCAP cell line; LNCaP
  EC50: > 31.6 µg/mL
KB cell line
  EC50: 17.5 µg/mL (≈ 49.2 µM)
SK-OV-3 cell line; [5]
  EC50: 9.2 µg/mL (≈ 25.9 µM)

## O=C(Nc1ccc(F)cc1)C(=O)c1cn(Cc2ccc(F)cc2)c2ccccc12 [Example 6, N-(4-Fluorophenyl)-[1-(4-fluorobenzyl)indol-3-yl]glyoxylamide]
L1210 cell line; [2]
  EC50: 1.75 µg/mL (≈ 4.48 µM)
LNCAP cell line; LNCaP tumor cells
  EC50: > 31.6 µg/mL
KB cell line; KB tumor cells
  EC50: 3.1 µg/mL (≈ 7.94 µM)
SK-OV-3 cell line; [3]
  EC50: 17.5 µg/mL (≈ 44.8 µM)

## O=C(Nc1ccncc1)C(=O)c1cn(Cc2ccccc2)c2ccccc12 [Example 9, N-(Pyridin-4-yl)-(1-benzylindol-3-yl)glyoxylamide]
L1210 cell line; [4]
  EC50: 0.09 µg/mL (≈ 0.253 µM)
LNCAP cell line; LNCaP
  EC50: 3.24 µg/mL (≈ 9.12 µM)
KB cell line
  EC50: 0.05 µg/mL (≈ 0.141 µM)
SK-OV-3 cell line; [5]
  EC50: 1.75 µg/mL (≈ 4.92 µM)

## O=C(Nc1ccncc1)C(=O)c1cn(Cc2cccnc2)c2ccccc12 [Example 10, N-(Pyridin-4-yl)-[1-(3-pyridylmethyl)indol-3-yl]glyoxylamide]
L1210 cell line; [2]
  EC50: 1.75 µg/mL (≈ 4.91 µM)
LNCAP cell line; LNCaP tumor cells
  EC50: > 31.6 µg/mL
KB cell line; KB tumor cells
  EC50: 4.06 µg/mL (≈ 11.4 µM)
SK-OV-3 cell line; [3]
  EC50: 7.22 µg/mL (≈ 20.3 µM)

## O=C(Nc1ccc(F)cc1)C(=O)c1cn(Cc2ccccn2)c2ccccc12 [Example 11, N-(4-Fluorophenyl)-[1-(2-pyridylmethyl)indol-3-yl]glyoxylamide]
L1210 cell line; [2]
  EC50: 1.75 µg/mL (≈ 4.69 µM)
LNCAP cell line; LNCaP tumor cells
  EC50: 17.5 µg/mL (≈ 46.9 µM)
KB cell line; KB tumor cells
  EC50: 4.59 µg/mL (≈ 12.3 µM)
SK-OV-3 cell line; [3]
  EC50: 4.25 µg/mL (≈ 11.4 µM)

## O=C(Nc1ccc(F)cc1)C(=O)c1cn(Cc2cccnc2)c2ccccc12 [Example 12, N-(4-Fluorophenyl)-[1(3-pyridylmethyl)indol-3-yl]glyoxylamide]
L1210 cell line; [2]
  EC50: 0.017 µg/mL (≈ 0.0455 µM)
LNCAP cell line; LNCaP tumor cells
  EC50: > 31.6 µg/mL
KB cell line; KB tumor cells
  EC50: > 31.6 µg/mL
SK-OV-3 cell line; [3]
  EC50: > 31.6 µg/mL

## O=C(Nc1ccncc1)C(=O)c1cn(Cc2ccccc2Cl)c2ccccc12 [Example 14, N-(Pyridin-4-yl)-[1-(2-chlorobenzyl)indol-3-yl]glyoxylamide]
L1210 cell line; [2]
  EC50: 1.75 µg/mL (≈ 4.49 µM)
LNCAP cell line; LNCaP tumor cells
  EC50: 17.5 µg/mL (≈ 44.9 µM)
KB cell line; KB tumor cells
  EC50: 1.75 µg/mL (≈ 4.49 µM)
SK-OV-3 cell line; [3]
  EC50: 2.58 µg/mL (≈ 6.62 µM)

## O=C(Nc1ccccn1)C(=O)c1cn(Cc2ccc(F)cc2)c2ccccc12 [Example 15, N-(Pyridin-2-yl)-[1-(4-fluorobenzyl)indol-3-yl]glyoxylamide]
L1210 cell line; [4]
  EC50: 3.1 µg/mL (≈ 8.3 µM)
LNCAP cell line; LNCaP
  EC50: > 31.6 µg/mL
KB cell line
  EC50: > 31.6 µg/mL
SK-OV-3 cell line; [5]
  EC50: > 31.6 µg/mL

## O=C(Nc1ccncc1)C(=O)c1cn(Cc2ccccn2)c2ccccc12 [Example 16, N-(Pyridin-4-yl)-[1-(2-pyridylmethyl)indol-3-yl]glyoxylamide]
L1210 cell line; [2]
  EC50: 1.75 µg/mL (≈ 4.91 µM)
LNCAP cell line; LNCaP tumor cells
  EC50: 17.5 µg/mL (≈ 49.1 µM)
KB cell line; KB tumor cells
  EC50: 4.59 µg/mL (≈ 12.9 µM)
SK-OV-3 cell line; [3]
  EC50: 4.25 µg/mL (≈ 11.9 µM)

## O=P1(NCCCl)OCCCN1CCCl (stereo not drawn) [Ifosfamide, reference compound]
[1]; i.p. (Table 5)
  Tox. i.p.: ≈732 i.p. mg/kg
L1210; Mus musculus, L1210, ip, 1 × x 316 mg/kg i.p.
  ILS at 316 mg/kg: 89%

## C[C@@H]1[O][Pt]2([NH]CC3CCC3C[NH]2)[O]C1=O (stereo partly drawn) [Lobaplatin, reference compound]
[1]; in vivo, ip
  Tox. i.p.: ≈34.0 i.p. mg/kg
L1210; 1 × 14.7 mg/kg ip
  % ILS L1210: 55.0% ILS

## CN(Cc1cnc2nc(N)nc(N)c2n1)c1ccc(C(=O)N[C@@H](CCC(=O)O)C(=O)O)cc1 [Methotrexate, reference compound]
L1210; Mus musculus, L1210, ip, 1 × 53.7 mg/kg i.p.
  ILS at 53.7 mg/kg: 39%
KB cell line; KB tumor cells
  EC50: ~0.007 µg/mL (≈ 0.0154 µM)
SK-OV-3 cell line; [3]
  EC50: > 31.6 µg/mL

## CCCCCCCCCCCCCCCCOP(=O)([O-])OCC[N+](C)(C)C [Miltefosine]
[1]; i.p. (Table 5)
  Tox. i.p.: ≈46.4 i.p. mg/kg
[1]
  Tox. p.o.: ≈464-1000 mg/kg
L1210; no dose given
  L1210 antitumor action (Table 5): no action

## O=C1c2c(O)ccc(O)c2C(=O)c2c(NCCNCCO)ccc(NCCNCCO)c21 [Mitoxantrone, reference compound]
L1210 cell line; [2]
  EC50: < 0.0003 µg/mL
[1]; i.v. (Table 5)
  Tox. i.v.: 16 i.v. mg/kg
LNCAP cell line; LNCaP tumor cells
  EC50: ~0.017 µg/mL (≈ 0.0382 µM)
L1210; Mus musculus, L1210, iv, 1 × 4.64 mg/kg i.v.
  ILS at 4.64 mg/kg: 144%
KB cell line; KB tumor cells
  EC50: ~0.174 µg/mL (≈ 0.391 µM)
SK-OV-3 cell line; [3]
  EC50: ~0.174 µg/mL (≈ 0.391 µM)

## C/C=C/[C@@H]1O[C@H]([C@H](O)/C=C/C=C(\C)C[C@@H](C)/C=C(C)\C=C\[C@H]2CC=CC(=O)O2)C[C@@H](O)[C@@H]1C [Ratjadone, reference compound]
L1210 cell line
  XTT EC50 L1210: L1210 < 0.003 μg/ml
[1]; i.p. (Table 5)
  Tox. i.p.: ~16.0 mg/kg
[1]; i.v. (Table 5)
  Tox. i.v.: ~30.0 i.v. mg/kg
LNCAP cell line; LNCaP tumor cells
  XTT EC50 LNCaP: LNCAP < 0.003 μg/ml
L1210; 1 × 1.47 mg/kg i.p.
  % ILS L1210: 22% ILS
KB cell line; KB tumor cells
  XTT EC50 KB: KB < 0.003 μg/ml
SK-OV-3 cell line
  XTT EC50 SK-OV-3: SKOV3 < 0.003 μg/ml

## CC[C@]1(O)C[C@H]2CN(CCc3c([nH]c4ccccc34)[C@@](C(=O)OC)(c3cc4c(cc3OC)N(C=O)[C@H]3[C@@](O)(C(=O)OC)[C@H](OC(C)=O)[C@]5(CC)C=CCN6CC[C@]43[C@@H]65)C2)C1 [Vincristine, reference compound]
L1210 cell line; [2]
  EC50: 0.004 µg/mL (≈ 0.00485 µM)
[1]; i.v. (Table 5)
  Tox. i.v.: ≈3.0 i.v. mg/kg
LNCAP cell line; LNCaP, LNCaP tumor cells
  EC50: 0.004 µg/mL (≈ 0.00485 µM)
L1210; Mus musculus, L1210, ip, 1 × 1.0 mg/kg i.p.
  ILS at 1 mg/kg: 29%
KB cell line; KB tumor cells
  EC50: < 0.001 µg/mL
SK-OV-3 cell line; [3]
  EC50: 0.003 µg/mL (≈ 0.00364 µM)
